According to PubChem BioAssay (NCI):
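How tested: cells in 96-well plates exposed to compound for 48 hours at five concentrations. Here, GI50 denotes the concentration required for 50% inhibition of growth. Definition used: TGI = concentration required for complete inhibition of growth.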

Legend:
Assay in all cases: NCI-60 cell line screen, 48 h
786-0 renal = tested on: 786-0 renal
A498 renal = tested on: A498 renal
A549 NSCLC = tested on: A549 NSCLC
ACHN renal = tested on: ACHN renal
BT-549 breast = tested on: BT-549 breast
CAKI-1 renal = tested on: CAKI-1 renal
CCRF-CEM leukemia = tested on: CCRF-CEM leukemia
COLO 205 colon = tested on: COLO 205 colon
DU-145 prostate = tested on: DU-145 prostate
EKVX NSCLC = tested on: EKVX NSCLC
HCC-2998 colon = tested on: HCC-2998 colon
HCT-116 colon = tested on: HCT-116 colon
HCT-15 colon = tested on: HCT-15 colon
HL-60(TB) leukemia = tested on: HL-60(TB) leukemia
HOP-62 NSCLC = tested on: HOP-62 NSCLC
HOP-92 NSCLC = tested on: HOP-92 NSCLC
HS 578T breast = tested on: HS 578T breast
HT29 colon = tested on: HT29 colon
IGROV1 ovarian = tested on: IGROV1 ovarian
K-562 leukemia = tested on: K-562 leukemia
KM12 colon = tested on: KM12 colon
LOX IMVI melanoma = tested on: LOX IMVI melanoma
M14 melanoma = tested on: M14 melanoma
MALME-3M melanoma = tested on: MALME-3M melanoma
MCF7 breast = tested on: MCF7 breast
MDA-MB-231 breast = tested on: MDA-MB-231 breast
MDA-MB-435 = tested on: MDA-MB-435
MOLT-4 leukemia = tested on: MOLT-4 leukemia
NCI-H226 lung = tested on: NCI-H226 lung

COc1cc(/C=C\c2cc(/C=C\c3ccc(O)c(OC)c3)n(C(=O)COc3ccccc3)n2)ccc1O
GI50 (786-0 renal): 1060 nM | TGI (786-0 renal): 3580 nM | GI50 (A498 renal): 2680 nM | TGI (A498 renal): 6490 nM | GI50 (A549 NSCLC): 2420 nM | TGI (A549 NSCLC): 11100 nM | GI50 (ACHN renal): 490 nM | TGI (ACHN renal): 11100 nM | GI50 (BT-549 breast): 571 nM | TGI (BT-549 breast): 4030 nM | GI50 (CAKI-1 renal): 657 nM | TGI (CAKI-1 renal): 12400 nM | GI50 (CCRF-CEM leukemia): 281 nM | TGI (CCRF-CEM leukemia): 1340 nM | GI50 (COLO 205 colon): 1960 nM | TGI (COLO 205 colon): 3950 nM | GI50 (DU-145 prostate): 1370 nM | TGI (DU-145 prostate): 8060 nM | GI50 (EKVX NSCLC): 2530 nM | TGI (EKVX NSCLC): 10300 nM | GI50 (HCC-2998 colon): 2270 nM | TGI (HCC-2998 colon): 10200 nM | GI50 (HCT-116 colon): 386 nM | TGI (HCT-116 colon): 10000 nM | GI50 (HCT-15 colon): 416 nM | TGI (HCT-15 colon): 7960 nM | GI50 (HL-60(TB) leukemia): 282 nM | TGI (HL-60(TB) leukemia): 901 nM | GI50 (HOP-62 NSCLC): 1080 nM | TGI (HOP-62 NSCLC): 4950 nM | GI50 (HOP-92 NSCLC): 3130 nM | TGI (HOP-92 NSCLC): 20400 nM | GI50 (HS 578T breast): 1120 nM | TGI (HS 578T breast): 6840 nM | GI50 (HT29 colon): 2670 nM | TGI (HT29 colon): 6350 nM | GI50 (IGROV1 ovarian): 919 nM | TGI (IGROV1 ovarian): 8000 nM | GI50 (K-562 leukemia): 366 nM | TGI (K-562 leukemia): 10800 nM | GI50 (KM12 colon): 500 nM | TGI (KM12 colon): 6810 nM | GI50 (LOX IMVI melanoma): 550 nM | TGI (LOX IMVI melanoma): 3290 nM | GI50 (M14 melanoma): 343 nM | TGI (M14 melanoma): 2680 nM | GI50 (MALME-3M melanoma): 585 nM | TGI (MALME-3M melanoma): 3710 nM | GI50 (MCF7 breast): 343 nM | TGI (MCF7 breast): 2830 nM | GI50 (MDA-MB-231 breast): 2380 nM | TGI (MDA-MB-231 breast): 15300 nM | GI50 (MDA-MB-435): 210 nM | TGI (MDA-MB-435): 492 nM | GI50 (MOLT-4 leukemia): 368 nM | TGI (MOLT-4 leukemia): 3260 nM | GI50 (NCI-H226 lung): 3150 nM | TGI (NCI-H226 lung): 9940 nM
